Experimental data as given in patent publication US5210290A, “Fluorobenzenesulfonamides” (Schering Aktiengesellschaft, priority 1990, dated 1993).

Tests used:
[1] = LD50, mouse; details: in vivo
[2] = pH dependency of the 19F NMR chemical shift (ppm/pH); assay type: physicochemical; details: change of 19F chemical shift per pH unit
Text: Determination of the pH value with the aid of NMR spectroscopy is based on the measurement of the signals from a chemical compound which is in a pH-dependent, reversible equilibrium. If this equilibrium is slow with respect to the NMR time scale, then the signals of all components can be obtained, and the signal intensities correspond to the concentrations of the equilibrium components. In contrast thereto, with a fast equilibrium, only one signal can be measured, and the chemical shift is given by the chemical displacement of the equilibrium components and their concentration.
In a two-component equilibrium, with knowledge of the pKa value and the chemical shift of the components, it is then possible to calculate the pH value with the aid of the Henderson-Hasselbalch equation.
The frequency (chemical shift) of a fluorine line is determined by the position of the F atom in the molecule. This also holds true, in principle, for all other atomic nuclei, but the chemical shift is especially strongly pronounced in case of the fluorine atom. In order to observe and/or quantify a shift of the fluorine signal, a related (reference) line is needed. This frequency line can be the ^1 H signal, an external F standard or, respectively, an unchanging F line which is likewise within the area to be measured. […]

[3] = pKa (37° C.); assay type: physicochemical

| Compound | LD50 [1] [µmol/kg] | ppm/pH [2] [ppm/pH] | pKa [3] |
| --- | --- | --- | --- |
| O=C(O)CN(CC(=O)O)C(=O)CS(=O)(=O)Nc1ccc(F)cc1C(F)(F)F [Example 10, 2-[2-[N-(4-Fluoro-2-trifluoromethylphenyl)sulfamoyl]acetylimino]diacetic Acid] | ≤ 7500 | 4.94 | 6.68 |
| O=C(O)CCNC(=O)CCS(=O)(=O)Nc1ccc(F)cc1C(F)(F)F [Example 48, 3-[3-[N-(4-Fluoro-2-trifluoromethylphenyl)sulfamoyl]propionylamino]propionic Acid] | 4000 | 5.21 | 6.91 |
